US20110152373A1, “HAIR GROWTH PROMOTING AGENT CONTAINING 15,15-DIFLUOROPROSTAGLANDIN F2ALPHA DERIVATIVE AS ACTIVE INGREDIENT” (SANTAN PHARMACEUTICAL CO., LTD., priority 2008, published 2011)

Test system: eyelashes of patients with open-angle glaucoma or ocular hypertension
Assay: European Phase III clinical trial: eyelash findings from photographs compared with base line
Assay type: in vivo, human
Details: for Color of eyelashes was changed (number of patients with finding) / Eyelashes were grown (number of patients with finding) / Eyelashes were made thicker (number of patients with finding): eye drop (0.0015% tafluprost or 0.005% latanoprost) once a day, one drop, total 264 patients per group
Procedure: A European Phase III clinical trial for tafluprost, one of the 15,15-difluoroprostaglandin F2α derivatives, with patients with open-angle glaucoma or ocular hypertension was performed by the following test method, and tafluprost was evaluated for findings associated with the eyelashes and an peripheral area thereof, that is, the evaluation was performed as to whether eyelashes were grown, eyelashes were made thicker, and the color of eyelashes was changed by the following evaluation method.
Patients with open-angle glaucoma or ocular hypertension were randomly allocated to two groups (a 0.0015% tafluprost eye drop group and a 0.005% latanoprost eye drop group) and received the eye drop once a day at a dose of one drop for 24 months in a double-blind manner after a washout period for 5 days to 4 weeks or more according to need prior to the glaucoma medication.
The eyelashes and eyelids were photographed at 0 (base line), 3, 6, 12, 18, and 24 months, and the photographs were compared with the base line, and the presence or absence of findings (eyelashes were grown, eyelashes were made thicker, and the color of eyelashes was changed) was confirmed.

| SMILES | Color of eyelashes was changed (number of patients with finding) (24 months) [patients] | Eyelashes were grown (number of patients with finding) (24 months) [patients] | Eyelashes were made thicker (number of patients with finding) (24 months) [patients] | Effect of promoting the growth of hair (eyelashes), in words (0.0015% eye drop once a day for 24 months, conclusion from Table 1) | Eyelash actions compared with those of latanoprost, in words (0.0015% tafluprost eye drop vs 0.005% latanoprost eye drop, 24 months) |
| --- | --- | --- | --- | --- | --- |
| CC(C)OC(=O)CCC/C=C\C[C@@H]1[C@@H](CC[C@@H](O)CCc2ccccc2)[C@H](O)C[C@@H]1O [Latanoprost, latanoprost, reference compound] | 10 | 11 | 4 |  |  |
| CC(C)OC(=O)CCC/C=C\C[C@@H]1[C@@H](/C=C/C(F)(F)COc2ccccc2)[C@H](O)C[C@@H]1O [Tafluprost, tafluprost] | 13 | 17 | 5 | has actions of growing eyelashes, making eyelashes thicker, and changing the color thereof | significant effects as compared with those of latanoprost |
